ChEMBL document CHEMBL5506032, “Discovery of 2,6-Naphthyridine Analogues as Selective FGFR4 Inhibitors for Hepatocellular Carcinoma” (J Med Chem, 2024)
The source made the active and inactive calls. The rule behind the calls is not given here.

Tests used:
Huh-7 [1] = assay: Antiproliferative activity against FGFR4 overexpressing human Huh-7 cells assessed as inhibition of cell growth by SRB assay
[2] = biological target: T1, Fibroblast growth factor receptor 1 (Homo sapiens, UniProt P11362); assay: Inhibition of FGFR1 (unknown origin) by Z'-LYTE kinase assay
Target sequence in this assay (P11362 whole entry): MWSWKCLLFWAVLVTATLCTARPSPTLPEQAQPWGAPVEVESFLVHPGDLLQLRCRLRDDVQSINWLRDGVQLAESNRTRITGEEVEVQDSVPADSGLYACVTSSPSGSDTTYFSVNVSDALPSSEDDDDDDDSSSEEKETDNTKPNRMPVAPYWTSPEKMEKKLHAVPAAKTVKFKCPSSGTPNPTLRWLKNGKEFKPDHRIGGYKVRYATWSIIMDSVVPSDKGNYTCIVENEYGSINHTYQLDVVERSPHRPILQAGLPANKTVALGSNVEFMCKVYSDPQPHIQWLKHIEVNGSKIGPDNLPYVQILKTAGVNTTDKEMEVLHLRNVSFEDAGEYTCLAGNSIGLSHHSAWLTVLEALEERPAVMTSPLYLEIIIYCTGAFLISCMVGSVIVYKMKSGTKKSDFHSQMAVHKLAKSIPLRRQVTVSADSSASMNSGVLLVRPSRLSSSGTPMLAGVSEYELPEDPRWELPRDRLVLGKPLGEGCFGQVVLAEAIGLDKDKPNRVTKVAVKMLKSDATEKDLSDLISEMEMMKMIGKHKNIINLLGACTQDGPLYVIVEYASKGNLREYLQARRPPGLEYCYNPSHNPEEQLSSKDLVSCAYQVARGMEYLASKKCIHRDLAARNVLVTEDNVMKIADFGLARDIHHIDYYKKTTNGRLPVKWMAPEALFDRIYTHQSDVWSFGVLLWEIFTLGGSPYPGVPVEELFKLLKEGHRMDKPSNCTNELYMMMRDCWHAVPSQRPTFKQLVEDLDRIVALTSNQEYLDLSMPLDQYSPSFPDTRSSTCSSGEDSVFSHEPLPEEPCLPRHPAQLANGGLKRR

[3] = biological target: T2, Fibroblast growth factor receptor 2 (Homo sapiens, UniProt P21802); assay: Inhibition of FGFR2 (unknown origin) by Z'-LYTE kinase assay
Target sequence in this assay (P21802 whole entry): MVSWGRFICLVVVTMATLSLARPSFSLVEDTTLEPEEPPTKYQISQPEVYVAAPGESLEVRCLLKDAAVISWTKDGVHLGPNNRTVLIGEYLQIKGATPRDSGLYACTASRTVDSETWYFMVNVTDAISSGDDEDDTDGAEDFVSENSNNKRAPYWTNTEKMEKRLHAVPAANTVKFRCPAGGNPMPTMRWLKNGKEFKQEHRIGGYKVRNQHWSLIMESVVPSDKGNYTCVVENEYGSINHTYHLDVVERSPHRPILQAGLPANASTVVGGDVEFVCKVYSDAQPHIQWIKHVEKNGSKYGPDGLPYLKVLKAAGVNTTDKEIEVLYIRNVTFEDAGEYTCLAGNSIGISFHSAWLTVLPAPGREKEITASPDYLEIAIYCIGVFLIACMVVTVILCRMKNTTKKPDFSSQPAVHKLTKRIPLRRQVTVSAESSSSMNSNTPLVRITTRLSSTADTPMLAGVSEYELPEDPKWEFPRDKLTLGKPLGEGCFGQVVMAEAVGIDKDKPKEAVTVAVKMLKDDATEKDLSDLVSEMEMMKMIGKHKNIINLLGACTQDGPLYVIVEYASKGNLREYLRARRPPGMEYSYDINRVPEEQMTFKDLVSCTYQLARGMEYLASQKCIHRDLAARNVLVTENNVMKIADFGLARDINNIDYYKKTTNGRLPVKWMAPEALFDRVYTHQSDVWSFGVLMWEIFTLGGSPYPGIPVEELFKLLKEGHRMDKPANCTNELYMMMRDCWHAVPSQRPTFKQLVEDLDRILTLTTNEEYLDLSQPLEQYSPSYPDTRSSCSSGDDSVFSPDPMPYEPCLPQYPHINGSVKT

[4] = biological target: Fibroblast growth factor receptor 3 (Homo sapiens, UniProt P22607); assay: Inhibition of FGFR3 (unknown origin) by Z'-LYTE kinase assay
Hep 3B2 [5] = assay: Antiproliferative activity against FGF19 amplified human Hep3B cells assessed as inhibition of cell growth by SRB assay
[6] = Antiproliferative activity against FGF19 amplified human JHH7 cells assessed as inhibition of cell growth by SRB assay
Hep 3B2 [7] = assay: Growth inhibition of FGF19 amplified and FGFR4 overexpressing human Hep3B cells by SRB assay; type: functional
Huh-7 [8] = assay: Growth inhibition of FGF19 amplified and FGFR4 overexpressing human Huh-7 cells by SRB assay; type: functional
[9] = Growth inhibition of FGF19 amplified and FGFR4 overexpressing human JHH7 cells by SRB assay; type: functional
SNU-387 = assay: Growth inhibition of human SNU-387 cells by SRB assay; type: functional
HepG2 = assay: Growth inhibition of human HepG2 cells by SRB assay; type: functional
PLC-PRF-5 = assay: Growth inhibition of human PLCPRF5 cells by SRB assay; type: functional
RT-112 = assay: Growth inhibition of FGFR3 overexpressing human RT-112 cells by SRB assay; type: functional
[10] = Growth inhibition of human HS27 cells by SRB assay; type: toxicity, cell-based
[11] = biological target: T1, Fibroblast growth factor receptor 1; assay: Inhibition of FGFR1 (unknown origin) at 1 uM relative to control
Target sequence in this assay (P11362 22-822 limits assumed): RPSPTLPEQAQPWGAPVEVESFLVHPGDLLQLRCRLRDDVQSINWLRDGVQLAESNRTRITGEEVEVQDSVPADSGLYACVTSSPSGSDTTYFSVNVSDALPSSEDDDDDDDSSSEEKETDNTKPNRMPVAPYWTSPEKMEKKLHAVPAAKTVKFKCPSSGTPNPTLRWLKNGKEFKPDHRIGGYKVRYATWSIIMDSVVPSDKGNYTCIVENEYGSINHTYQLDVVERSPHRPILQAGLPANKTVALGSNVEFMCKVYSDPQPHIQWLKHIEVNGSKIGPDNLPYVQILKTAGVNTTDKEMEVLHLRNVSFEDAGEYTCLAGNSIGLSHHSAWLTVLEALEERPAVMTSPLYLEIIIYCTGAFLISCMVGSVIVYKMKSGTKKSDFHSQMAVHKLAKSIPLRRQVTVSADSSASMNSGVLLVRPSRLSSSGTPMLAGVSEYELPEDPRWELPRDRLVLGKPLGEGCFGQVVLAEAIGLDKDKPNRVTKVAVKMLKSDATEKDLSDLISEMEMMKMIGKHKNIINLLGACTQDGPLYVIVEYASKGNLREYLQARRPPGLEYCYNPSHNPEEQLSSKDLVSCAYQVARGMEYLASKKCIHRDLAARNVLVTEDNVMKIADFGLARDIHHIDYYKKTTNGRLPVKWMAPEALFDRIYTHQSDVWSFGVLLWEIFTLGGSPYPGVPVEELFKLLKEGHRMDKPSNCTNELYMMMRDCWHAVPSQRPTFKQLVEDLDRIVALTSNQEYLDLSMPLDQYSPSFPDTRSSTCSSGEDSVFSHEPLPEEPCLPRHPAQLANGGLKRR

[12] = biological target: T2, Fibroblast growth factor receptor 2; assay: Inhibition of FGFR2 (unknown origin) at 1 uM relative to control
Target sequence in this assay (P21802 22-821 limits assumed): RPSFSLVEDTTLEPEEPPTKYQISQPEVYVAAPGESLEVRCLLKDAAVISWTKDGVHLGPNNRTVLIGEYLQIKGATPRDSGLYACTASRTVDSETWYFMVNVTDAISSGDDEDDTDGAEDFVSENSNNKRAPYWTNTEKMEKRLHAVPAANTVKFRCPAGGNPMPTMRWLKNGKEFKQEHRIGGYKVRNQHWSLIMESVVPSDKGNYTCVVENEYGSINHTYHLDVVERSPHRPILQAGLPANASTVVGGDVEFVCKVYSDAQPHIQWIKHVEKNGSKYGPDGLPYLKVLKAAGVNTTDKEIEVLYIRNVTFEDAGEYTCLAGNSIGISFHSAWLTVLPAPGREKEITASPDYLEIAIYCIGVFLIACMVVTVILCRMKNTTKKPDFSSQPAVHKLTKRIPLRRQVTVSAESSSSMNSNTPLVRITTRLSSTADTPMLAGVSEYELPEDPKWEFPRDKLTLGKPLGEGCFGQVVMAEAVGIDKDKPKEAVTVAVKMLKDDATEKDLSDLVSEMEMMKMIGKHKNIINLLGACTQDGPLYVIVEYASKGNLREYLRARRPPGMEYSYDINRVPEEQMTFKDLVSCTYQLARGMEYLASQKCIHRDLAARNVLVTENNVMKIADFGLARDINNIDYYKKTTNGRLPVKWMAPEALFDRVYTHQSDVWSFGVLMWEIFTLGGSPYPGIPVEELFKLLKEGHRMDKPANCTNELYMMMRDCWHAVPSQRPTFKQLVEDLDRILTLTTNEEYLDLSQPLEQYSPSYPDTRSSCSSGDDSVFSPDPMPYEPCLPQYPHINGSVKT

[13] = AUC (0 to 24 hrs) in ICR mouse at 5 mg/kg, iv by LC-MS/MS analysis; type: ADME, organism-based; conditions: in vivo
[14] = Cmax in ICR mouse at 5 mg/kg, iv by LC-MS/MS analysis; type: ADME, organism-based; conditions: in vivo
[15] = Half-life in ICR mouse at 5 mg/kg, iv by LC-MS/MS analysis; type: ADME, organism-based; conditions: in vivo
[16] = AUC (0 to 24 hrs) in ICR mouse at 50 mg/kg, po measured after 24 hrs by LC-MS/MS analysis; type: ADME, organism-based; conditions: in vivo
[17] = Cmax in ICR mouse at 50 mg/kg, po measured after 24 hrs by LC-MS/MS analysis; type: ADME, organism-based; conditions: in vivo
[18] = Tmax in ICR mouse at 50 mg/kg, po measured after 24 hrs by LC-MS/MS analysis; type: ADME, organism-based; conditions: in vivo
[19] = Half-life in ICR mouse at 50 mg/kg, po measured after 24 hrs by LC-MS/MS analysis; type: ADME, organism-based; conditions: in vivo
[20] = Oral bioavailability in ICR mouse at 50 mg/kg measured after 24 hrs by LC-MS/MS analysis; type: ADME, organism-based; conditions: in vivo
[21] = AUC (0 to 24 hrs) in ICR mouse at 100 mg/kg, po measured after 24 hrs by LC-MS/MS analysis; type: ADME, organism-based; conditions: in vivo
[22] = Cmax in ICR mouse at 100 mg/kg, po measured after 24 hrs by LC-MS/MS analysis; type: ADME, organism-based; conditions: in vivo
[23] = Tmax in ICR mouse at 100 mg/kg, po measured after 24 hrs by LC-MS/MS analysis; type: ADME, organism-based; conditions: in vivo
[24] = Half-life in ICR mouse at 100 mg/kg, po measured after 24 hrs by LC-MS/MS analysis; type: ADME, organism-based; conditions: in vivo
[25] = Oral bioavailability in ICR mouse at 100 mg/kg measured after 24 hrs by LC-MS/MS analysis; type: ADME, organism-based; conditions: in vivo
[26] = AUC (0 to 24 hrs) in ICR mouse at 200 mg/kg, po measured after 48 hrs by LC-MS/MS analysis; type: ADME, organism-based; conditions: in vivo
[27] = Cmax in ICR mouse at 200 mg/kg, po measured after 48 hrs by LC-MS/MS analysis; type: ADME, organism-based; conditions: in vivo
[28] = Tmax in ICR mouse at 200 mg/kg, po measured after 48 hrs by LC-MS/MS analysis; type: ADME, organism-based; conditions: in vivo
[29] = Half-life in ICR mouse at 200 mg/kg, po measured after 48 hrs by LC-MS/MS analysis; type: ADME, organism-based; conditions: in vivo
[30] = Oral bioavailability in ICR mouse at 200 mg/kg measured after 48 hrs by LC-MS/MS analysis; type: ADME, organism-based; conditions: in vivo
Huh-7 [31] = assay: Antitumor activity against human Huh-7 cells xenografted in female BALB/c nude mouse assessed as reduction in tumor volume at 100 mg/kg, po administered twice daily for 15 days; type: functional, organism-based; conditions: time 15.0 day
[32] = Toxicity in female BALB/c nude mouse xenografted with human Huh-7 cells assessed as effect on body weight at 100 mg/kg, po administered twice daily for 15 days; type: organism-based; conditions: in vivo, 360 h, time 15 day
[33] = Toxicity in female BALB/c nude mouse xenografted with human Huh-7 cells assessed as clinical signs at 100 mg/kg, po administered twice daily for 15 days; type: organism-based; conditions: in vivo, 360 h, time 15 day
Hep 3B2 [34] = assay: Antitumor activity against human Hep3B cells xenografted in female BALB/c nude ectopic mouse assessed as reduction in tumor volume at 100 mg/kg, po administered twice daily for 15 days; type: functional, organism-based; conditions: time 15.0 day
Hep 3B-Luc [35] = assay: Antitumor activity against human Hep 3B-Luc cells xenografted in female BALB/c nude mouse assessed as reduction in liver tumor volume at 100 mg/kg, po administered once daily for 7 weeks and measured within 35 days by bioluminescence imaging; type: functional, organism-based; conditions: time <= 35.0 day
Hep 3B-Luc [36] = assay: Antitumor activity against human Hep 3B-Luc cells xenografted in female BALB/c nude mouse assessed as reduction in liver tumor volume at 100 mg/kg, po administered once daily for 7 weeks and measured after 119 days by bioluminescence imaging; type: functional, organism-based; conditions: time 119.0 day
[37] = Antitumor activity against human Hep 3B-Luc cells xenografted in female BALB/c nude mouse assessed as survival at 100 mg/kg, po administered once daily for 7 weeks and measured after 119 days relative to control; type: functional; conditions: 2856 h, time 119 day
[38] = biological target: Fibroblast growth factor receptor 4 (Homo sapiens, UniProt P22455); assay: Inhibition of FGFR4 (unknown origin) by Z'-LYTE kinase assay
Fibroblast growth factor receptor 4, sequence (P22455 whole entry): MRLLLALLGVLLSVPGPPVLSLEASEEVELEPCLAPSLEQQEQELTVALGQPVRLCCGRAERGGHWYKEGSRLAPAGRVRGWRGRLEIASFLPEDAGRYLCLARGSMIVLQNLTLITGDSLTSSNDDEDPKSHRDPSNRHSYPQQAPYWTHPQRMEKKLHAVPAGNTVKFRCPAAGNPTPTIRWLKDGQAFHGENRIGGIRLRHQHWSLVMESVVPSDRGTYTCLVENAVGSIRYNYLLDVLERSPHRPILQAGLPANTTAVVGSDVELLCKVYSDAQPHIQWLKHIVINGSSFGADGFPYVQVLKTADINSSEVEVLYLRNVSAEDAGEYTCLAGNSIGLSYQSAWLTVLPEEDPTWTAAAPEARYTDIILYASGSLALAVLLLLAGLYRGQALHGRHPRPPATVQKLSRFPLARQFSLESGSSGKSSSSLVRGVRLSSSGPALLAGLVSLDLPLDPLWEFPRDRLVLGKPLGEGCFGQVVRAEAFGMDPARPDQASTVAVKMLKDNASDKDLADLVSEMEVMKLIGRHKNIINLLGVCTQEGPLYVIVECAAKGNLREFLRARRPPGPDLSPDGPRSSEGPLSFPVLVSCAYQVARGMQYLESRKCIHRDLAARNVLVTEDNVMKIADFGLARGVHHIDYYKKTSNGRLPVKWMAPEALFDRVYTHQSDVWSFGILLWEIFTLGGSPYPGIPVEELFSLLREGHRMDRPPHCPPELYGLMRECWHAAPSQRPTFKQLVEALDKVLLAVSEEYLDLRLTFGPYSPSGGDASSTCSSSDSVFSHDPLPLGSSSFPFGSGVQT

Fibroblast growth factor receptor 3, sequence (P22607 whole entry): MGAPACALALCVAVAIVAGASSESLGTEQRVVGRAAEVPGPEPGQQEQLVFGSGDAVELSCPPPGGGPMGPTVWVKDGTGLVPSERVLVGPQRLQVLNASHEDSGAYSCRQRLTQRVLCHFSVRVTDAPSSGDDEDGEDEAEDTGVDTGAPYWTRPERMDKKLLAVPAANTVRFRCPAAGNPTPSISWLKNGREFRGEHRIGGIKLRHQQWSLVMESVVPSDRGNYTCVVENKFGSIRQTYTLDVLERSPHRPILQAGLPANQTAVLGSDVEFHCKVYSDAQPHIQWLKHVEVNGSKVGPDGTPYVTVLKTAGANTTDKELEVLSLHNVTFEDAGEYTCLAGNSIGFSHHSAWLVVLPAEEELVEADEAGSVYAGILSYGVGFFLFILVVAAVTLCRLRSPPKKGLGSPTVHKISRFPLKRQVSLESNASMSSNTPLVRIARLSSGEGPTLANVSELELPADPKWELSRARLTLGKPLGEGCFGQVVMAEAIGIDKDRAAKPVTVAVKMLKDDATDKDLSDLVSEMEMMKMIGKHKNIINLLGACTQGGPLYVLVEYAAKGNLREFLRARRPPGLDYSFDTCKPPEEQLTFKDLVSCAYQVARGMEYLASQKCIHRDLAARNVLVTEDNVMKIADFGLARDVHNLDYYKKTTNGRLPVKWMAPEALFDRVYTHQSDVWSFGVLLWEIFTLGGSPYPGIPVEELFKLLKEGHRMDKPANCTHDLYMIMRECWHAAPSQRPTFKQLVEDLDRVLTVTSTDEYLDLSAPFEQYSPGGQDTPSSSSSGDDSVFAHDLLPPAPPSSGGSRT

For `C=CC(=O)Nc1ccccc1Nc1cc2c(C)nc(-c3c(Cl)c(OC)cc(OC)c3Cl)cc2cn1`, the IC50 (Huh-7 [1]) was 19 nM, the IC50 [2] was 1260 nM and the IC50 [3] was 3270 nM. For the same molecule, the IC50 [4] was > 10000 nM, the IC50 (Hep 3B2 [5]) was 16 nM and the IC50 [6] was 33 nM. It also gave a GI50 (Hep 3B2 [7]) of 16 nM, a GI50 (Huh-7 [8]) of 16 nM and a GI50 [9] of 16 nM. For the same molecule, the GI50 (SNU-387) was 251 nM, the GI50 (HepG2) was 335 nM and the GI50 (PLC-PRF-5) was 598 nM. For the same molecule, the GI50 (RT-112) was 151 nM, the GI50 [10] was 913 nM and the inhibition [11] was > 85%. For the same molecule, the inhibition [12] was > 85%, the AUC(0-t) [13] was 4810 ng·h/mL and the Cmax [14] was 8140 ng/mL. For the same molecule, the half-life [15] was 1.7 h, the AUC(0-t) at 24 h [16] was 27300 ng·h/mL and the Cmax [17] was 11200 ng/mL. It also gave a Tmax [18] of 1 h, a half-life [19] of 4.4 h and a bioavailability [20] of 56.8%. For the same molecule, the AUC(0-t) at 24 h [21] was 59500 ng·h/mL, the Cmax [22] was 24600 ng/mL and the Tmax [23] was 0.5 h. It also gave a half-life [24] of 3.9 h, a bioavailability [25] of 61.9% and an AUC(0-t) at 48 h [26] of 102000 ng·h/mL. For the same molecule, the Cmax [27] was 40700 ng/mL, the Tmax [28] was 1 h and the half-life [29] was 8.6 h. The bioavailability [30] was 53.2%, the Activity (Huh-7 [31]) was “Active” and the Activity [32] was “Non-Toxic”. For the same molecule, the Activity [33] was “Non-Toxic”, the Activity (Hep 3B2 [34]) was “Active” and the Activity (Hep 3B-Luc [35]) was “Active”. For the same molecule, the Activity (Hep 3B-Luc [36]) was “Active” and the survival at 100 mg/kg [37] was > 90%.
`C=CC(=O)Nc1ccc(N2CCN(CC)CC2)c(F)c1Nc1cc2cnc(-c3c(F)c(OC)cc(OC)c3F)cc2cn1` showed an IC50 (Huh-7 [1]) of 137 nM.
With `C=CC(=O)Nc1ccccc1Nc1cc2c(-c3ccco3)nc(-c3c(Cl)c(OC)cc(OC)c3Cl)cc2cn1` the IC50 (Huh-7 [1]) was 110 nM.
In the case of `C=CC(=O)Nc1ccccc1Nc1cc2c(-c3ccccc3)nc(-c3c(Cl)c(OC)cc(OC)c3Cl)cc2cn1`, the IC50 (Huh-7 [1]) is reported as 69 nM.
With `C=CC(=O)Nc1ccc(C)cc1Nc1cc2cnc(-c3c(Cl)c(OC)cc(OC)c3Cl)cc2cn1` the IC50 (Huh-7 [1]) was 37 nM.
Molecule `C=CC(=O)Nc1ccccc1Nc1cc2c(-c3ccc[nH]3)nc(-c3c(Cl)c(OC)cc(OC)c3Cl)cc2cn1` has an IC50 (Huh-7 [1]) of 61 nM.
With `C=CC(=O)Nc1cc(C)ccc1Nc1cc2cnc(-c3c(Cl)c(OC)cc(OC)c3Cl)cc2cn1` the IC50 (Huh-7 [1]) was 125 nM.
With `C=CC(=O)N[C@H]1CCOC[C@H]1Nc1ncc2cc(-c3c(Cl)c(OC)cc(OC)c3Cl)ccc2n1` [FISOGATINIB] the IC50 (Huh-7 [1]) was 81 nM, the IC50 [38] was 53 nM and the IC50 [2] was 1840 nM. For the same molecule, the IC50 [3] was 2500 nM, the IC50 [4] was > 10000 nM and the IC50 (Hep 3B2 [5]) was 122 nM. The IC50 [6] was 161 nM, the Activity (Huh-7 [31]) was “Active” and the Activity [32] was “Non-Toxic”. The Activity [33] was “Non-Toxic”.
Work on `C=CC(=O)Nc1cc2c(cc1Nc1cc3cnc(-c4c(Cl)c(OC)cc(OC)c4Cl)cc3cn1)CCC2` yielded an IC50 (Huh-7 [1]) of 113 nM.
With `C=CC(=O)Nc1cccc(F)c1Nc1cc2cnc(-c3c(F)c(OC)cc(OC)c3F)cc2cn1` the IC50 (Huh-7 [1]) was 140 nM.
For `C=CC(=O)Nc1cccc(C)c1Nc1ncc2cc(-c3c(Cl)c(OC)cc(OC)c3Cl)ccc2n1`, the IC50 (Huh-7 [1]) was 191 nM.
`C=CC(=O)Nc1ccccc1Nc1cc2cnc(-c3c(F)c(OC)cc(OC)c3F)cc2cn1` gave an IC50 (Huh-7 [1]) of 25 nM.
Work on `C=CC(=O)Nc1ccccc1Nc1cc2c(-c3cnn(C)c3)nc(-c3c(Cl)c(OC)cc(OC)c3Cl)cc2cn1` yielded an IC50 (Huh-7 [1]) of 50 nM.
Work on `C=CC(=O)Nc1ccccc1Nc1cc2c(-c3cccnc3)nc(-c3c(Cl)c(OC)cc(OC)c3Cl)cc2cn1` yielded an IC50 (Huh-7 [1]) of 68 nM.
`C=CC(=O)Nc1ccccc1Nc1cc2cnc(-c3c(Cl)c(OC)cc(OC)c3Cl)cc2cn1` showed an IC50 (Huh-7 [1]) of 23 nM, an IC50 [2] of 506 nM and an IC50 [3] of 281 nM. The IC50 [4] was 4630 nM.
With `C=CC(=O)Nc1cccc(C)c1Nc1cc2cnc(-c3c(Cl)c(OC)cc(OC)c3Cl)cc2cn1` the IC50 (Huh-7 [1]) was 212 nM.
In the case of `C=CC(=O)Nc1ccccc1Nc1cc2c(C3CC3)nc(-c3c(Cl)c(OC)cc(OC)c3Cl)cc2cn1`, the IC50 (Huh-7 [1]) is reported as 67 nM.
`C=CC(=O)Nc1ccccc1Nc1cc2c(CC)nc(-c3c(Cl)c(OC)cc(OC)c3Cl)cc2cn1` gave an IC50 (Huh-7 [1]) of 36 nM.
In the case of `C=CC(=O)Nc1cccc(F)c1Nc1cc2cnc(-c3c(Cl)c(OC)cc(OC)c3Cl)cc2cn1`, the IC50 (Huh-7 [1]) is reported as 220 nM.
Molecule `C=CC(=O)Nc1cc(N2CCOCC2)ccc1Nc1cc2cnc(-c3c(Cl)c(OC)cc(OC)c3Cl)cc2cn1` has an IC50 (Huh-7 [1]) of 80 nM.
